Test results: patent publication US9944669B2, “Fumarate-CO-releasing molecule hybrids, their use in the treatment of inflammatory or cardiovascular diseases and their process of preparation” (UNIVERSITE PARIS EST CRETEIL VAL DE MARNE, priority 2014, dated 2018)
Where a name gives a salt, the structure may show the parent alone.

Tests used:
[1] = system: BV2 cells challenged with lipopolysaccharide (LPS); assay: Nitrite production in BV2 cells challenged with LPS (Griess method); type: cell-based
Experimental: […] At the end of the incubation, nitrite levels were measured using the Griess method.^12,14 Briefly, cell plates were centrifuged at 10,000×g for 5 min and the cell-free supernatant was incubated with an equal volume of Griess reagent (2 mM N-(1-naphtyl)ethylenediamide, 30 mM sulfanilamide and 140 mM o-phosphoric acid) for 10 min at room temperature. The absorbance was measured at 560 nm. Concentrations of nitrite (μM) were calculated from a standard curve of sodium nitrite.

HO-1 = HO-1 protein expression in THP-1 cells; type: cell-based, Human
Experimental: THP-1 cells were exposed to different concentration of compounds A, B, and C during 6 hours.

TNF-α = TNF-α production in THP-1 cells challenged with LPS; type: cell-based, Human; conditions: LPS (100 μg/ml), 5 μM compound, 24 h
Experimental: Human THP-1 cells cultured as in Example 3.3 were treated with LPS (100 μg/ml) alone or in the presence of 5 μM compound C, compound E or the comparative dimethyl fumarate (DMF) for 24 h.

`C#CCOC(=O)/C=C/C(=O)OCC` [Compound J] was tested, and the “Nitrite levels (μM) LPS + compound” value ([1]; 5 μM compound, 24 hr incubation with 0.5 μg/ml LPS, mean ± SEM) was 43.2 ± 1.0 µM, the “% decrease vs. LPS (nitrite)” value ([1]; 5 μM compound, 24 hr, LPS) was 50.1% and the “concentration giving almost the same reduction of nitrite production (compound C vs compound J)” value ([1]; BV2, LPS 1 μg/ml 24 h) was 5 µM. For the same compound, the “concentration needed for the same HO-1 result, as fold of the compound C concentration (5 μM)” value (HO-1) was 10 fold.
`COC(=O)/C=C/C(=O)OC` [dimethyl fumarate (DMF)] was tested, and the TNF-α production (TNF-α) was “did not have any effect”.
